Columns and labels:
Format in all cases: physicochemical
[1] = Texture analysis / density at 0.2 MPa; details: 200 mg sample compressed in steel mould
Experimental: A simple and low sample consuming method for evaluation of the packing density of powders were obtained as compression profiles under low pressures using a die and a flat-faced punch fitted on a TA-XTplus Texture analyser (Stable Micro Systems Ltd., Godalming, UK). The small amount of 200 mg of sample is compressed in a steel mould (with the rate of displacement 0.03 mm/s). Also, a cyclic procedure (similar to tapping) was performed at maximal compressive displacement 0.5 mm, then retracting, relaxation for 15 s and then repeated compressive steps (altogether up to 20 steps).

[2] = Polymorph stability on storage at various relative humidity (PXRD)
Experimental: Sample after being powdered in a mortar and pestle is applied directly on a silicon plate holder. The X-ray powder diffraction pattern was measured with Philips X'Pert PRO X-ray powder diffractometer, equipped with Cu irradiation source=1.54184 Å(Ångström), X'Celerator (2.022° 2θ) detector. Scanning parameters: angle range: 3-40 deg., step size 0.0167, time per step 37 s, continuous scan.
(§1) The obtained amorphous form was stored at various conditions, and the PXRD was analyzed after 3 and 7 days:
The obtained pure amorphous form was stored at various conditions, and the PXRD was analyzed after 3 and 7 days:
(§2) The obtained form alpha was stored at various conditions, and the PXRD was analyzed after 3 and 8 days:
(§3) The obtained amorphous form was stored at various conditions of relative humidity, and the PXRD was obtained after 1M (Table 4):
(§4) The obtained amorphous form was stored at various conditions, and the PXRD was obtained after 2M (Table 5):
(§5) XRPD pattern is shown in FIG. 16; SEM image is shown in FIG. 17; DSC thermogram is shown in FIG. 21 and TGA thermogram is shown in FIG. 22. The obtained form alpha was stored at various conditions, and the PXRD was obtained after 8, 14, and 21 days (Table 6): […]

[3] = Bulk density/tapped density, Hausner ratio and Carr index (Ph. Eur. 2.9.34. Method 1); details: PSD/μm 3/8/24
Experimental: Bulk density/tapped density and corresponding Hausner ratio and Carr index were determined according to Ph. Eur. 2.9.34. Method 1.

[4] = Specific surface area (SSA), BET nitrogen
Experimental: Specific Surface Area (SSA) measurements (Bet Nitrogen) were determined using a Micromeritics ASAP 2000, specific surface area analyzer. Samples were subjected to the BET nitrogen adsorption analysis to determine the specific surface of the samples.
Sample tube: 10 cc bulb with ½″ stem
Sample mass: Approximately ½ full cell
Sample preparation: Degassing with nitrogen
Outgassing conditions: 40° C. (30 min)
Isothermal collection point: 20 adsorption points, in the range 0-1 P/P0
Isothermal data analysis range: 5 point BET in the range 0.05-0.20 P/P0
Equilibration interval: 5 s
Equilibration time out: 600 s

[5] = Dissolution in 50 mM phosphate buffer pH = 7.4 at 37° C.; details: 50 mM phosphate buffer pH = 7.4, 37° C.
Experimental: Samples were prepared and analysed in duplicate. About 20 mg of each sample were weighed into 500 ml Erlenmeyer flask, 200 ml of 50 mM phosphate buffer pH=7.4, previously heated to 37° C. were added and flasks were shaken at 110 rpm for 60 minutes at 37±0.2° C. in an incubator shaker. 3 ml aliquots were taken at 5, 10, 20, 30, 45 and 60 min, filtered through 0.45 μm Chromafil Xtra RC 45/25 syringe filter and analysed by UV/VIS spectrometer (absorbance at 203 nm).
The measurement was performed using the following instruments: • pH/Ion meter PHM 240, MeterLab, Radiometer Analytical • Incubator shaker Innova 4080, New Brunswick Scientific, 19 mm diameter circular orbit • UV/VIS spectrometer Varian Cary 50 Bio, 1 mm quartz cell Results of Eluxadoline samples dissolution in 50 mM phosphate buffer pH=7.4 are summarized in Table 8 below: […]

[6] = % weight loss / water content (TGA, KF) after storage at various relative humidity; details: for % weight loss/water cont. - after 21 days, TGA: TGA up to 121° C.
Experimental: as §1, §2, §3, §4, §5

Compound: COc1ccc(CN(C(=O)[C@@H](N)Cc2c(C)cc(C(N)=O)cc2C)[C@@H](C)c2nc(-c3ccccc3)c[nH]2)cc1C(=O)O [Example 22]
- Density at 0.2 MPa [1]: 0.4707 mg/mm^3
- PXRD results - after 21 days ([2]; 0% RH, 21 days): alpha
- PXRD results - after 21 days ([2]; 20% RH, 21 days): alpha
- PXRD results - after 21 days ([2]; 40% RH, 21 days): alpha
- PXRD results - after 21 days ([2]; 60% RH, 21 days): alpha
- PXRD results - after 21 days ([2]; 80% RH, 21 days): alpha
- PXRD results - after 21 days ([2]; 100% RH, 21 days): alpha
- PXRD results - after 21 days ([2]; As is): alpha
- Bulk density [3]: 0.33 mg/mm^3
- Carr's index [3]: 14.93%
- Flow character (Carr's index) [3]: good
- Hausner ratio [3]: 1.18
- Tapped density [3]: 0.39 mg/mm^3
- SSA [4]: 9.63 m^2/g
- % dissolved ([5]; 5 min): 83.62%
- % dissolved ([5]; 10 min): 91.02%
- % dissolved ([5]; 20 min): 95.48%
- % dissolved ([5]; 30 min): 95.87%
- % dissolved ([5]; 45 min): 96.56%
- % dissolved ([5]; 60 min): 96.64%
- % weight loss/water cont. - after 21 days, TGA ([6]; 0% RH, 21 days): TGA-0.96%
- % weight loss/water cont. - after 21 days, TGA ([6]; 20% RH, 21 days): TGA-1.26%
- % weight loss/water cont. - after 21 days, TGA ([6]; 40% RH, 21 days): TGA-1.46%
- % weight loss/water cont. - after 21 days, TGA ([6]; 60% RH, 21 days): TGA-6.30%
- % weight loss/water cont. - after 21 days, TGA ([6]; 80% RH, 21 days): TGA-7.00%
- % weight loss/water cont. - after 21 days, TGA ([6]; 100% RH, 21 days): TGA-9.01%
- % weight loss/water cont. - after 21 days, KF ([6]; As is): 1.12%
- % weight loss/water cont. - after 21 days, TGA ([6]; As is): 0.95%

From patent US10314819B2, “Solid state forms of Eluxadoline” (TEVA PHARMACEUTICALS INTERNATIONAL GMBH, priority 2015, dated 2019)
